Values quoted from earlier work, collected in patent publication US6387861B1, “Detergent compositions” (Unilever Home & Personal Care USA division of Conopco, Inc., priority 1999, dated 2002).
Read-outs that look alike come from different tables or passages of the source.

Details: 20° C.

SMILES | Water Solubility (other common materials) | Water Solubility (grams of solid to form a saturated solution in 100 grams of water, highly water-soluble materials)
O=BO[O-].[Na+] [Sodium perborate anhydrous] | 3.7 g/100 g | 
O=P(O)(O)OP(=O)(O)OP(=O)(O)O [Sodium tripolyphosphate anhydrous] | 15 g/100 g | 
NC(N)=O [Urea] |  | >100 g/100 g
